According to paper PMC11310081, “Deep-learning-enabled antibiotic discovery through molecular de-extinction” (Nature Biomedical Engineering, 2024):
Converted amounts (≈) assume the structure as drawn. Where two headings read alike, the source gives them in different places. Peptide text beside a SMILES is read from it.

How the values were obtained:
[1] = tested on: 11 clinically relevant bacterial pathogens; assay type: cell-based; settings: Supplementary Dataset 2; against the 11 pathogens tested
Text: (§1) The following Gram-negative bacteria were used in our study: A. baumannii ATCC 19606, E. coli ATCC 11775, E. coli AIC221 (E. coli MG1655 phnE_2::FRT), E. coli AIC222 (E. coli MG1655 pmrA53 phnE_2::FRT (colistin resistant)), K. pneumoniae ATCC 13883, P. aeruginosa PAO1 and P. aeruginosa PA14. The following Gram-positive bacteria were also used in our study: S. aureus ATCC 12600, S. aureus ATCC BAA-1556 (methicillin-resistant strain), E. faecalis ATCC 700802 (vancomycin-resistant strain) and E. faecium ATCC 700221 (vancomycin-resistant strain). Bacteria were grown from frozen stocks and plated on Luria–Bertani (LB) or Pseudomonas isolation agar plates (P. aeruginosa strains) and incubated overnight at 37 °C. After the incubation period, a single colony was transferred to 5 ml of LB medium, and cultures were incubated overnight (16 h) at 37 °C. The following day, an inoculum was prepared by diluting the overnight cultures 1:100 in 5 ml of the respective media and incubating them at 37 °C until bacteria reached logarithmic phase (OD600 = 0.3–0.5).
(§2) The in vitro antimicrobial activity of the peptides was assessed by using the broth microdilution assay. […] Aqueous solutions of the peptides were added to the plate at concentrations ranging from 1 to 64 μmol l^−1. […] The optical density of the plates was measured at 600 nm using a spectrophotometer. All assays were done as three biological replicates.

HEK293T cells = tested on: HEK293T cells
Method: HEK293T cells were obtained from the American Type Culture Collection (CRL-3216). The cells were cultured in high-glucose Dulbecco’s modified Eagle’s medium supplemented with 1% penicillin and streptomycin (antibiotics) and 10% fetal bovine serum and grown at 37 °C in a humidified atmosphere containing 5% CO2.
One day before the experiment, an aliquot of 100 μl of the cells at 50,000 cells per ml was seeded into each well of the cell-treated 96-well plates used in the experiment (that is, 5,000 cells per well). […] After the incubation period, we performed the 3-(4,5-dimethylthiazol-2-yl)-2,5-diphenyltetrazolium bromide tetrazolium reduction assay (MTT assay)[53]. The MTT reagent was dissolved at 0.5 mg ml^−1 in medium without phenol red and was used to replace cell culture supernatants containing the peptides (100 μl per well), and the samples were incubated for 4 h at 37 °C in a humidified atmosphere containing 5% CO2 yielding the insoluble formazan salt. The resulting salts were then resuspended in hydrochloric acid (0.04 mol l^−1) in anhydrous isopropanol and quantified by spectrophotometric measurements of absorbance at 570 nm. All assays were done as three biological replicates.
Unless otherwise stated, all assays were performed in three independent biological replicates as indicated in each figure legend and Methods sections. The cytotoxic activities values were estimated using non-linear regression based on the range of concentrations screened and were shown as the values that cause lysis of 50% of the cells in the experiment. Two technical replicates were performed in the cytotoxicity assays within each of the three biological replicates.

A. baumannii ATCC 19606 = assay type: cell-based, Acinetobacter baumannii; settings: ATCC 19606, 20 h
Text: as §1, §2

Compound | Active or Inactive [1] | CC50 (HEK293T cells; 24 h) [µM] | TI (therapeutic index) (HEK293T cells; 24 h) | Minimal inhibitory concentration, A. baumannii ATCC19606 (A. baumannii ATCC 19606) [µM] | CC50 (HEK293T cells) [µM] | TI (therapeutic index) (HEK293T cells)
CC[C@H](C)[C@H](NC(=O)[C@H](CCCNC(=N)N)NC(=O)[C@H](Cc1c[nH]cn1)NC(=O)[C@H](CCCCN)NC(=O)[C@@H](NC(=O)CNC(=O)[C@H](CCCNC(=N)N)NC(=O)[C@H](C)NC(=O)[C@H](CCCCN)NC(=O)[C@@H](NC(=O)[C@H](C)NC(=O)[C@@H]1CCCN1C(=O)[C@H](CC(C)C)NC(=O)[C@H](CCC(N)=O)NC(=O)[C@H](CO)NC(=O)[C@H](Cc1ccccc1)NC(=O)[C@H](CC(C)C)NC(=O)[C@H](CC(C)C)NC(=O)[C@@H](NC(=O)[C@@H](N)CS)C(C)C)C(C)C)[C@@H](C)O)C(=O)N[C@@H](CCCCN)C(=O)N[C@@H](Cc1c[nH]c2ccccc12)C(=O)N[C@@H](CC(N)=O)C(=O)N[C@@H](CCCNC(=N)N)C(=O)N[C@@H](CCCCN)C(=O)O [Equusin-4] (H-CVLLFSQLPAVKARGTKHRIKWNRK-OH; N-terminus and C-terminus assumed) | Active | > 128 | > 8 | 16 (≈ 47.2 µg/mL) |  | 
CC[C@H](C)[C@H](N)C(=O)N[C@@H](Cc1ccccc1)C(=O)N[C@@H](CC(C)C)C(=O)N[C@@H](Cc1c[nH]cn1)C(=O)N[C@@H](CC(C)C)C(=O)N[C@@H](CCCCN)C(=O)N[C@H](C(=O)N[C@@H](CC(C)C)C(=O)N[C@@H](CCCCN)C(=O)N[C@H](C(=O)N[C@H](C(=O)N[C@@H](Cc1c[nH]cn1)C(=O)N[C@@H](CC(C)C)C(=O)N[C@@H](CC(C)C)C(=O)O)[C@@H](C)CC)[C@@H](C)CC)[C@@H](C)O [Mammuthusin-1] (H-IFLHLKTLKIIHLL-OH; N-terminus and C-terminus assumed) | Active | > 128 |  | 8 (≈ 13.6 µg/mL) |  | 
CC[C@H](C)[C@H](NC(=O)[C@H](CC(C)C)NC(=O)[C@@H](NC(=O)[C@H](CCCCN)NC(=O)[C@H](Cc1c[nH]c2ccccc12)NC(=O)[C@@H](NC(=O)[C@H](CCCCN)NC(=O)[C@H](CC(=O)O)NC(=O)[C@@H](NC(=O)[C@H](CC(C)C)NC(=O)[C@H](Cc1ccccc1)NC(=O)[C@H](C)NC(=O)CNC(=O)[C@@H](NC(=O)[C@@H](N)CCCCN)C(C)C)C(C)C)C(C)C)[C@@H](C)O)C(=O)O [Anomalopterin-2] (H-KVGAFLVDKVWKTLI-OH; N-terminus and C-terminus assumed) | Active | > 128 |  | 32 (≈ 54.9 µg/mL) |  | 
CC[C@H](C)[C@H](NC(=O)[C@H](CC(C)C)NC(=O)[C@H](Cc1c[nH]cn1)NC(=O)[C@@H](NC(=O)[C@H](CC(C)C)NC(=O)[C@H](CC(C)C)NC(=O)[C@H](Cc1c[nH]cn1)NC(=O)CN)[C@@H](C)CC)C(=O)NCC(=O)N[C@@H](CCCCN)C(=O)N[C@@H](C)C(=O)N[C@H](C(=O)N[C@@H](CC(C)C)C(=O)N[C@@H](C)C(=O)N[C@@H](CC(C)C)C(=O)O)[C@@H](C)O [Arctoterin-1] (H-GHLLIHLIGKATLAL-OH; N-terminus and C-terminus assumed) | Active | > 128 |  | 64 (≈ 100 µg/mL) |  | 
CC[C@H](C)[C@H](NC(=O)[C@@H](N)[C@@H](C)O)C(=O)N[C@@H](CCCCN)C(=O)N[C@@H](CC(C)C)C(=O)N[C@@H](Cc1ccccc1)C(=O)N[C@@H](CC(C)C)C(=O)N[C@@H](CO)C(=O)N[C@@H](Cc1ccccc1)C(=O)N[C@@H](CCCCN)C(=O)N[C@@H](CC(C)C)C(=O)O [Xenothrixin-1] (H-TIKLFLSFKL-OH; N-terminus and C-terminus assumed) | Active | 70.77 |  | 8 (≈ 9.68 µg/mL) | 70.77 | 8.84
CC[C@H](C)[C@H](NC(=O)[C@@H]1CCCN1C(=O)[C@H](CC(N)=O)NC(=O)[C@@H]1CCCN1C(=O)[C@@H]1CCCN1C(=O)[C@H](CCCCN)NC(=O)[C@@H](N)CCCCN)C(=O)N[C@@H](CCCCN)C(=O)N1CCC[C@H]1C(=O)N[C@@H](CCCCN)C(=O)N[C@H](C(=O)N1CCC[C@H]1C(=O)N[C@@H](CC(C)C)C(=O)N[C@@H](CO)C(=O)N[C@@H](C)C(=O)N1CCC[C@H]1C(=O)N[C@@H](CCCNC(=N)N)C(=O)N[C@@H](CCCCN)C(=O)N[C@@H](CO)C(=O)N1CCC[C@H]1C(=O)N[C@@H](CC(N)=O)C(=O)N[C@H](C(=O)N[C@H](C(=O)N[C@@H](CCCCN)C(=O)N[C@@H](Cc1ccc(O)cc1)C(=O)N[C@@H](CCCNC(=N)N)C(=O)N[C@@H](CC(C)C)C(=O)N[C@@H](CCCCN)C(=O)N[C@@H](Cc1ccccc1)C(=O)N[C@@H](CCCNC(=N)N)C(=O)O)C(C)C)[C@@H](C)O)C(C)C [Mammuthusin-5] (H-KKPPNPIKPKVPLSAPRKSPNTVKYRLKFR-OH; N-terminus and C-terminus assumed) | Active | > 128 | > 4 | 32 (≈ 112 µg/mL) |  | 
CC[C@H](C)[C@H](NC(=O)[C@H](CC(N)=O)NC(=O)[C@H](CC(C)C)NC(=O)[C@@H](NC(=O)[C@H](Cc1ccccc1)NC(=O)[C@@H]1CCCN1C(=O)[C@@H]1CCCN1C(=O)[C@@H](NC(=O)[C@H](CO)NC(=O)[C@H](CC(C)C)NC(=O)[C@H](CCCCN)NC(=O)[C@H](CCCCN)NC(=O)[C@H](Cc1ccc(O)cc1)NC(=O)[C@@H](NC(=O)[C@@H](N)CCCCN)[C@@H](C)CC)[C@@H](C)O)[C@@H](C)O)C(=O)N[C@@H](CCCNC(=N)N)C(=O)N[C@H](C(=O)N[C@@H](CC(C)C)C(=O)N1CCC[C@H]1C(=O)N[C@@H](CCCCN)C(=O)N[C@H](C(=O)N[C@@H](CCCCN)C(=O)N[C@@H](Cc1ccccc1)C(=O)N1CCC[C@H]1C(=O)N[C@@H](CCCCN)C(=O)O)C(C)C)[C@@H](C)O [Mylodonin-3] (H-KIYKKLSTPPFTLNIRTLPKVKFPK-OH; N-terminus and C-terminus assumed) | Active | > 128 |  | 16 (≈ 47.3 µg/mL) |  | 
CC[C@H](C)[C@H](NC(=O)[C@H](CCCCN)NC(=O)[C@H](CC(N)=O)NC(=O)[C@@H](NC(=O)[C@@H](NC(=O)[C@H](Cc1c[nH]c2ccccc12)NC(=O)[C@H](CC(C)C)NC(=O)[C@H](CCC(N)=O)NC(=O)[C@H](CC(C)C)NC(=O)[C@@H](NC(=O)[C@H](C)NC(=O)[C@H](CC(C)C)NC(=O)[C@@H](N)CCCNC(=N)N)[C@@H](C)O)[C@@H](C)O)[C@@H](C)CC)C(=O)N[C@H](C(=O)N[C@@H](CCCCN)C(=O)N[C@@H](CCC(N)=O)C(=O)N[C@@H](CC(C)C)C(=O)N[C@@H](CCSC)C(=O)N[C@H](C(=O)N1CCC[C@H]1C(=O)N[C@@H](CC(C)C)C(=O)N[C@@H](CC(N)=O)C(=O)N[C@@H](CCCCN)C(=O)N1CCC[C@H]1C(=O)NCC(=O)N[C@@H](Cc1c[nH]cn1)C(=O)N[C@@H](CCCCN)C(=O)O)[C@@H](C)CC)[C@@H](C)O [Ararin-2] (H-RLATLQLWTINKITKQLMIPLNKPGHK-OH; N-terminus and C-terminus assumed) | Active | > 128 |  | 16 (≈ 50.5 µg/mL) |  | 
CC[C@H](C)[C@H](N)C(=O)N[C@@H](CC(C)C)C(=O)N[C@@H](CC(C)C)C(=O)N[C@H](C(=O)N[C@H](C(=O)N[C@@H](C)C(=O)N[C@H](C(=O)N[C@@H](C)C(=O)N[C@H](C(=O)N[C@@H](CCCCN)C(=O)N[C@@H](CC(C)C)C(=O)NCC(=O)N[C@@H](CC(C)C)C(=O)O)[C@@H](C)CC)[C@@H](C)CC)[C@@H](C)O)[C@@H](C)O [Ararin-1] (H-ILLTTAIAIKLGL-OH; N-terminus and C-terminus assumed) | Active | > 128 | > 4 |  |  | 
